Measurements reported in US10123985B2, “Therapeutic strategies for treating mitochondrial disorders” (Whitehead Institute for Biomedical Research, priority 2015, dated 2018).
Entries after “also recorded” stand apart in the source; their conditions may differ.

Key:
143B cells [1] = test: Proliferation assay of wild-type 143B cells treated with respiration inhibitors; assay type: cell-based; settings: oligomycin with or without FCCP
Description: 143B, A172, H1299, HeLa, U87 and MEF cells were cultured in Dulbecco's Modified Eagle's Medium (DMEM) (Gibco) supplemented with 10% fetal bovine serum (FBS) and penicillin-streptomycin. FL5.12 cells were cultured in the same medium and supplemented with 5 μg/mL recombinant mouse IL-3 (R&D Systems). 143B cybrid cell lines (WT Cybrid and CytB) were cultured in DMEM with 10% FBS, penicillin-streptomycin, and 0.1 mg/mL uridine. All cells incubated at 37° C. with 5% CO2.
(§1) Adherent cell lines growing in log phase were trypsinized, counted, and plated onto 6 well dishes (Corning) in 2 mL complete DMEM and incubated overnight. Initial seeding density was 2E4 cells per well for 143B, A172, H1299, HeLa, 143B WT Cybrid, and MEFs and 3E4 cells for 143B CytB and U87 cells. The following day, one plate of cells was counted to determine the initial cell count at the time of treatment. Cells were washed 2 times with 2 mL phosphate buffered saline (PBS) and 4 mL media premixed with the indicated treatments was added. FL5.12 cells, a suspension cell line, were washed 2 times in PBS and added directly to media containing the indicated treatments and 5 μg/mL recombinant mouse IL-3. Proliferation rate assay media was DMEM without pyruvate containing 10% dialyzed FBS, penicillin-streptomycin, and 0.1 mg/mL uridine, unless otherwise noted. For these cell lines at these seeding densities it was determined that for 4 days the cells maintained logarithmic proliferation (data not shown), therefore final cell counts were measured 4 days after treatment. Cells were counted using Cellometer Auto T4 Plus Cell Counter (Nexcelom Bioscience). Proliferation rate was determined using the following formula: Proliferation Rate (Doublings per day)=(log2(Final cell count (day 5)/Initial cell count (day 1))/4 (days)

143B cells [2] = test: Mitochondrial oxygen consumption (Seahorse XF24), cells treated with respiration inhibitors; assay type: cell-based; settings: oligomycin with or without FCCP
Description: Oxygen consumption rates were determined on a Seahorse Bioscience Extracellular Flux Analyzer (XF24). Cells were plated in Seahorse Bioscience 24 well plates at 6E4 cells per well in 100 μL complete DMEM, allowed to attach for 1 hour, and 500 μl complete DMEM was added before overnight incubation. The following day cells were washed 2 times in assay media: DMEM without phenol red or pyruvate containing 0.5% dialyzed FBS and 0.1 mg/mL uridine at pH 7.4 and incubated in 500 μL of the same media for the assay.

143B cells [3] = test: Measurement of NAD+/NADH (NAD/NADH Glo) in 143B cells with respiration inhibitors; assay type: cell-based; settings: oligomycin with or without FCCP
Description: NAD^+/NADH measurements were done using a modified version of manufacturer instructions of NAD/NADH Glo Assay (Promega). Cells were plated and treated as for proliferation assays and cell extracts were taken 6 hours after treatment. For extraction, cells were quickly washed 3 times in ice cold PBS, extracted in 100 μL ice cold lysis buffer (1% Dodecyltrimethylammonium bromide (DTAB) in 0.2 N NaOH diluted 1:1 with PBS), and immediately frozen at −80° C. To measure NADH, 20 μL of sample was moved to PCR tubes and incubated at 75° C. for 30 min, where the basic conditions will selectively degrade NAD^+. To measure NAD^+, 20 μL of the samples was moved to PCR tubes containing 20 μL lysis buffer and 20 μL 0.4 N HCl and incubated at 60° C. for 15 min, where acidic conditions will degrade NADH. Following incubations, samples were allowed to equilibrate to room temperature and then quenched by neutralizing with 20 μL 0.25 M Tris in 0.2 N HCl (NADH) or 20 μL 0.5 M Tris base (NAD^+). Manufacturer instructions were followed thereafter to measure NAD^+/NADH.

Jurkat cells [4] = test: Proliferation assay (Cell Titer Glo, 5 days) of wild type and knock-out Jurkat cells; assay type: cell-based, human
Description: sgRNAs (oligonucleotide sequences are indicated above) were cloned into lentiCRISPR-v1 linearized with BsmBI by Gibson Assembly (NEB). sgRNA expressing vector along with lentiviral packaging vectors Delta-VPR and CMV VSVG were transfected into HEK-293T cells using the XTremeGene 9 transfection reagent (Roche). Similarly, for overexpression cell lines, cDNA vectors along with retroviral packaging vectors gag-pol and CMV VSV-G were transfected into HEK-293T cells. Media was changed 24 hours after transfection.

Jurkat cells [5] = test: Seahorse oxygen consumption of Jurkat cells; assay type: cell-based, human; settings: phenformin (10 μM), wild type and GOT1 null
Description: Oxygen consumption of intact cells was measured using an XF24 Extracellular Flux Analyzer (Seahorse Bioscience). For Jurkat cells, seahorse plates were coated with cell TAK (BD, 0.02 mg/ml in […] NaHO3) for 20 minutes to increase adherence of suspension cells. 200,000 cells were then attached to the plate by centrifugation at 2,200 rpm without brakes for 5 min. RPMI 8226 (US biological #9011) assay media was used as previously described (Birsoy et al., 2014). For basal oxygen consumption measurements the cell number was used to normalize.

Jurkat cells [6] = test: [U-13C]-L-glutamine isotope tracing of aspartate in Jurkat cells; assay type: cell-based, human; settings: phenformin (10 μM)
Description: (§2) LC/MS analyses were conducted on a QExactive benchtop orbitrap mass spectrometer equipped with an Ion Max source and a HESI II probe, which was coupled to a Dionex UltiMate 3000 UPLC system (Thermo Fisher Scientific, San Jose, Calif.). External mass calibration was performed using the standard calibration mixture every 7 days.
Polar metabolites were extracted using 1 ml of ice-cold 80% methanol with 10 ng/ml valine-d8 as an internal standard. After a 10 min vortex and centrifugation for 10 min at 4° C. at 10,000 g, samples were dried under nitrogen gas. Dried samples were stored at −80° C. and then resuspended in 100 μL water; 1 μl of each sample was injected onto a ZIC-pHILIC 2.1×150 mm (5 μm particle size) column (EMD Millipore). Buffer A was 20 mM ammonium carbonate, 0.1% ammonium hydroxide; buffer B was acetonitrile. […] Relative quantitation of polar metabolites was performed with XCalibur QuanBrowser 2.2 (Thermo Fisher Scientific) using a 5 ppm mass tolerance and referencing an in-house library of chemical standards.

Jurkat cells [7] = test: Metabolite profiling (LC/MS) of Jurkat cells; assay type: cell-based, human
Description: as §2
Polar metabolites were extracted using 1 ml of ice-cold 80% methanol with 10 ng/ml valine-d8 as an internal standard. After a 10 min vortex and centrifugation for 10 min at 4° C. at 10,000 g, samples were dried under nitrogen gas. Dried samples were stored at −80° C. and then resuspended in 100 μL water; 1 μl of each sample was injected onto a ZIC-pHILIC 2.1×150 mm (5 μm particle size) column (EMD Millipore). Buffer A was 20 mM ammonium carbonate, 0.1% ammonium hydroxide; buffer B was acetonitrile. The chromatographic gradient was run at a flow rate of 0.150 ml/min as follows: 0-20 min.: linear gradient from 80% to 20% B; 20-20.5 min.: linear gradient from 20% to 80% B; 20.5-28 min.: hold at 80% B. The mass spectrometer was operated in fullscan, polarity switching mode with the spray voltage set to 3.0 kV, the heated capillary held at 275° C., and the HESI probe held at 350° C. The sheath gas flow was set to 40 units, the auxiliary gas flow was set to 15 units, and the sweep gas flow was set to 1 unit. The MS data acquisition was performed in a range of 70-1000 m/z, with the resolution set at 70,000, the AGC target at 106, and the maximum injection time at 80 msec. Relative quantitation of polar metabolites was performed with XCalibur QuanBrowser 2.2 (Thermo Fisher Scientific) using a 5 ppm mass tolerance and referencing an in-house library of chemical standards.

[8] = tested on: Raji lymphoma and KMS-26 multiple myeloma cells; assay type: cell-based, human; settings: 5-day treatment
Description: […]. Media was changed 24 hours after transfection.

143B CytB cells [9] = test: Cell cycle distribution by propidium iodide flow cytometry; assay type: cell-based; settings: 143B CytB cells, 100 μM adenine, 78 hours
Description: 143B CytB cells were incubated in untreated media or media containing AKB or 100 μM adenine for 78 hours before being washed with PBS, trypsinized, pelleted, and resuspended in 500 μL PBS. Cells were fixed by adding 4.5 mL 70% ethanol and incubated at 4° C. overnight. The following day cells were pelleted and resuspended in 1 mL PBS+0.1% (v/v) Triton X-100. RNase A and then propidium iodide (PI) were added to 0.2 mg/mL and 20 μg/mL, respectively. Samples were incubated at 37° C. for 15 minutes and filtered into a flow cytometry tube. DNA content was measured by flow cytometry (BD FACS Canto II) and analyzed (FACS Diva Software).

143B CytB cells [10] = test: Proliferation assay of respiration-incompetent 143B CytB cybrid cells; assay type: cell-based; settings: media supplemented with the substance; no pyruvate unless tested, uridine present
Description: FL5.12 cells were cultured in the same medium and supplemented with 5 μg/mL recombinant mouse IL-3 (R&D Systems). […] All cells incubated at 37° C. with 5% CO2.
as §1, with “Initial seeding density was 2E4 cells per well for 143B, A172, H1299, HeLa, 143B WT Cybrid, and MEFs and 3E4 cells for 143B CytB and U87 cells.” left out, “For these cell lines at these seeding densities it was determined that for 4 days the cells maintained logarithmic proliferation (data not shown), therefore final cell counts were measured 4 days after treatment.” left out

[11] = GOT1-null Jurkat cells, 24-hour phenformin

N#CC(C#N)=NNc1ccc(OC(F)(F)F)cc1 [FCCP, carbonyl cyanide-4-(trifluoromethoxy)phenylhydrazone, reference compound]
Proliferation rate of oligomycin treated 143B cells (143B cells [1]): increased proliferation of oligomycin treated cells | Oxygen consumption of oligomycin treated cells (143B cells [2]): increased | NAD+/NADH ratio of oligomycin treated 143B cells (143B cells [3]): increased

[H]/N=C(/N)N/C(=N/[H])NCCc1ccccc1 [phenformin, reference compound]
Proliferation of Jurkat cells (Jurkat cells [4]; 0.5 μM phenformin, pyruvate-free RPMI): only mildly slowed proliferation | Viability and proliferation of GOT1-null versus wild type Jurkat cells (Jurkat cells [4]; higher concentrations of phenformin, 5 days): GOT1-null cells die; also recorded: GOT1-null cells arrested and died, while the wild type counterparts did not | Proliferation of GOT1-null versus wild type Jurkat cells (Jurkat cells [4]; low doses of phenformin, 5 days): inhibited the proliferation of GOT1-null cells to a much greater extent than that of wild type cells | Oxygen consumption (respiration) of Jurkat cells (Jurkat cells [5]): suppressed respiration as measured by oxygen consumption; also recorded: inhibits oxygen consumption of wild type and GOT1 null Jurkat cells | Aspartate synthesis from [U-13C]-L-glutamine (Jurkat cells [6]; GOT1-null Jurkat cells): almost no generation of aspartate from labeled glutamine | Aspartate synthesis from [U-13C]-L-glutamine (Jurkat cells [6]; wild type Jurkat cells): aspartate is mainly synthesized by reductive metabolism of glutamine in a GOT1-dependent manner; also recorded: aspartate synthesis dropped, and what remained came primarily from reductive glutamine metabolism with almost no contribution from the oxidative pathway | Other amino acids (Jurkat cells [7]; [11]): without much effect on other amino acids | Reduction of cellular aspartate (Jurkat cells [7]; [11]): ~30 fold | Aspartate level (Jurkat cells [7]; MDH1-null Jurkat cells, phenformin (10 μM) 24 hours): dropped to the same level as it did in wild type cells | Fall of aspartate levels (Jurkat cells [7]; wild type Jurkat cells, 24-hour phenformin): ~3 fold | Sensitivity of GOT1-null versus wild type Raji and KMS-26 cells to phenformin [8]: GOT1 loss sensitizes various human cell types to phenformin treatment; also recorded: far more sensitive to phenformin than their wild type counterparts

Nc1ncnc2nc[nH]c12 [adenine, reference compound]
Cell cycle distribution (DNA content) (143B CytB cells [9]): alleviated the slight accumulation of cells at the S/G2 transition | Proliferation rate of 143B CytB cells (143B CytB cells [10]): restored proliferation for one doubling
